Measurements reported in patent publication US20090042820A1, “Tubulin Binding Anti Cancer Agents And Prodrugs Thereof” (Threshold Pharmaceuticals, Inc., priority 2004, published 2009).
pIC50: −log10 of the molar value. Where two headings read alike, the source gives them in different places.

What was measured:
MES-SA = assay: Alamar Blue antiproliferation assay, MES-SA; assay type: cell-based; conditions: Homo sapiens, 72 h, 3 Day
Plasma stability = assay type: in vitro ADME; conditions: mouse plasma, 5 μM, 37° C.
Method: For an assessment of plasma stability of compounds, commercially available mouse plasma (Bioreclamation, Hicksville, N.Y.) was added to a DMSO solution of a compound, to a concentration of 5 μM. The reaction mixture (50 μl) was withdrawn immediately and after 30 minutes at 37° C., proteins were precipitated with acetonitrile. The clear supernatant was analyzed by reversed phase LC-MS/MS and the amount the compound remaining quantified as shown in table 4.

cancer cell = assay: Cancer cell antiproliferation assay (cell line not stated); assay type: cell-based; conditions: summary statement; read-out: GI50 or IC50 in a cancer cell antiproliferation assay
Method: In one aspect, the present invention provides a compound of formula (I-VII) having a GI50, GI90, IC50, or IC50 of about 0.001 to about 1000 nM, about 0.01 to about 100 nm, about 0.1 to about 50 nM, and about 1 to about 10 nM in a cancer cell antiproliferation assay. In one embodiment, the present invention provides a compound of formula (I) having a GI50 or IC50 of about 0.01 to about 100 nm, about 0.1 to about 50 nm, and about 1 to about 10 nm in a cancer cell antiproliferation assay. In various embodiments, said antiproliferation assays employ cancer cell including but not limited to gastric, colon, breast, and non-small cell lung cancer. In various embodiments, the […] cancer cell used is MESSA or doxorubicin resistant MESSA/DX5 cell; the colon cancer cell is HT29 cell; the breast cancer cell is T47D cell; and the non-small cell lung cancer cell is H460 cell.
(§1) To determine the effect of the compounds of the present invention on cell proliferation, the antiproliferative activity of these compounds was tested in a multi-well Alamar Blue based assay (at 2 h and 3 days). Cell growth in the presence and absence of the test compound as tabulated in Table 1 was compared, as measured by a fluorescence plate reader at excitation 550 nm and emission 590 nm (see Biosource International Inc., Tech Application Notes, Use of Alamar Blue in the measurement of Cell Viability and Toxicity, Determining IC50). H460 cells (ATCC HTB-177 ([…]), 4,000 cells/well/200 μl) and LNCap cells (ATCC CRL-1740, 6,000 cells/well/200 μl) were seeded in a 96 well plate in RPMI medium (Invitrogen Corporation, Carlsbad, Calif.). After 24 hours, these plates were divided into 3 groups—Control group, 2 h treatment group and 3 day treatment group.
(§2) In the 2 h treatment group, after 2 h the cells were rinsed to remove the test compound and incubated for 3 days, followed by staining with AlamarBlue. The cells in the 3-day treatment group were incubated for 3 days, followed by staining with AlamarBlue. In the Control group, AlamarBlue was added to the plate at (i) day 0 and (ii) day 3 and measured to establish the control reading. In all the groups, the capacity of the cells to proliferate was measured 6 hours after addition of AlamarBlue by a fluorescence plate reader at excitation 550 nm and emission 590 nm.

[1] = Metabolic stability in mouse liver microsomes; assay type: in vitro ADME; conditions: 5 μM, 1 mg/mL protein, NADPH, 37° C.
Method: An in vitro assessment of metabolic stability of compounds was performed using commercially available mouse liver microsomes (MLM) containing cytochrome P450 enzymes (Cedra Corp, Austin, Tex.). A solutions (5 μM) of a compound and microsomes (1 mg/mL protein) was prepared. P450 enzymatic reactions were initiated by adding an NADPH solution. Enzymatic reactions were carried out in a thermostated shaking water bath kept at 37° C. Fifty μl of the reaction mixture was withdrawn immediately and 30 minutes after the addition of the NADPH solution and the proteins were precipitated with acetonitrile. The clear supernatant was analyzed by reversed phase LC-MS/MS (Applied Biosystems API-3000 with Hypersil-BDS C18 column and gradient elution), with internal standard area ratio quantification for the amount the compound remaining as shown in table 4.

tubulin = assay: Tubulin polymerization inhibition (cell free tubulin fluorescence); assay type: biochemical; conditions: compared to untreated tubulin, read-out: IC50 (μM), concentration that reduced tubulin fluorescence by 50%
Method: A sample of cell free tubulin polymerizes and the sample's fluorescence emission increases. Inhibition of tubulin polymerization by a tubulin binding compounds of the present invention was measured by the dose dependence of cell free tubulin fluorescence.

[2] = H460 xenograft mouse model; assay type: in vivo; conditions: female, mouse, in vivo; daily dose for five days, CB17/SCID mice; read-out: maximum tolerated dose
Method: (§3) Female CB17/SCID mice (purchased from Taconic, Oxnard, Calif.), 7-8 weeks of age, were allowed to acclimatize for at least three days, and handled under pathogen-free conditions. Human non-small cell lung cancer cell line […] was obtained from the American Type Culture Collection. The cell lines were cultured in RPMI 1640 media supplemented with 10% fetal bovine serum. Cells were maintained in a 37° C. incubator with 5% CO2. The H460 cells were harvested from culture and inoculated at 1×10^6 cells/animal in the […] subcutaneous space. […] Taxol was administered approximately 2-3 hours before that of compound 30.
(§4) The body weight of each mouse was recorded twice per week (FIG. 1). […] One animal in the treatment group was found dead on day 18, and two were found dead on day 22 in the combination group.
(§5) FIG. 2 graphically illustrates the mean tumor volume for each treatment group. Growth of each xenograft was monitored by externally measuring tumors in two dimensions using a digital caliper twice per week. Tumor volume (V) was determined by the following equation: V=(L×W^2)/2, where L is the length and W is the width of a xenograft. Tumor volumes were measured twice weekly. On day 11, the Treated/Control (T/C) ratio was 65% and 52% in the treatment and combination groups, respectively. At the final measurement (day 22), the T/C ratio for the treatment and combination groups respectively were 43% and 19%.

H460 xenograft = H460 xenograft mouse model; assay type: in vivo; conditions: for Treated/Control (T/C) ratio, tumor volume: compound 30 5 mg/kg daily for five days from day 8
Method: as §3, §4, §5

T47D = assay: Alamar Blue antiproliferation assay, T47D; assay type: cell-based; conditions: Homo sapiens, 72 h, 3 Day
H460 cells [3] = assay: Cell cycle analysis; assay type: cell-based, human; conditions: 24 h
Method: H460 cells (2×10^5 cells/ml/well) were seeded in a 24 well plate. The culture media were removed after 24 h, the cells were trypsinized and centrifuged. […] The cells were centrifuged and the supernatant was discarded. The cell cycle staining reagent (Guava Technologies, Hayward, Calif., USA, 200 μl) was added to each well. The cells were shielded from light and incubated at room temperature for 30 min.

HT29 = assay: Alamar Blue antiproliferation assay, HT29; assay type: cell-based; conditions: Homo sapiens, HT-29, 72 h; HT29, 3 Day
MES-SA/DX5 = assay: Alamar Blue antiproliferation assay, MES-SA/DX5; assay type: cell-based; conditions: Homo sapiens, 72 h; MES-SA/DX5, 3 Day
H460 cells [4] = assay: Alamar Blue antiproliferation assay, H460 cell line; assay type: cell-based, human; conditions: Homo sapiens
Method: as §1, §2

[5] = patients, reported in literature; cited from earlier work
[6] = NCI-H460, 2 h treatment, then 3 days incubation, read-out: GI50 (nM) 2 Hour
[7] = NCI-H460, 72 h, 3 day treatment, read-out: GI50 (nM) 3 Days

COc1cc(C(=O)c2n[nH]c3c(C#CCO)c(OC)ccc23)cc(OC)c1OC [Compound 30]
GI50 (MES-SA): 0.3 nM | Plasma stability (% remaining at 30 min) (Plasma stability): 104% | pIC50 (cancer cell): 7.30 to 9.00 | Metabolic stability (MLM, % remaining at 30 min) [1]: 101 ± 16% | IC50 (tubulin): 3.9 µM | MTD at 5 days [2]: 5 to 20 mg/kg | toxicity at doses greater than 5 mg/kg (H460 xenograft; daily doses 20 and 50 mg/kg for five days, treatment and combination groups): toxic and caused lethality | Treated/Control (T/C) ratio, tumor volume (H460 xenograft; day 11): 65% | animals found dead (H460 xenograft; day 18, compound 30 5 mg/kg daily, ten per group): One | Treated/Control (T/C) ratio, tumor volume (H460 xenograft; day 22 (final measurement)): 43% | mean weight loss (H460 xenograft; day 22 from start of treatment on day 8, compound 30 5 mg/kg daily for five days): 8% | tumor volume as % of a control tumor volume (H460 xenograft; human cancer cell xenograft tumor bearing mice, summary statement): 5-70% | GI50 (T47D): 2.5 nM | % G2/M (H460 cells [3]; H460, 0.4 nM): 31% | % Go/G1 (H460 cells [3]; H460, 0.4 nM): 46% | % S (H460 cells [3]; H460, 0.4 nM): 14% | % G2/M (H460 cells [3]; H460, 1.2 nM): 29% | % Go/G1 (H460 cells [3]; H460, 1.2 nM): 48% | % S (H460 cells [3]; H460, 1.2 nM): 15% | % G2/M (H460 cells [3]; H460, 3.7 nM): 31% | % Go/G1 (H460 cells [3]; H460, 3.7 nM): 46% | % S (H460 cells [3]; H460, 3.7 nM): 14% | % G2/M (H460 cells [3]; H460, 11.1 nM): 68% | % Go/G1 (H460 cells [3]; H460, 11.1 nM): 14% | % S (H460 cells [3]; H460, 11.1 nM): 9% | % G2/M (H460 cells [3]; H460, 33.3 nM): 80% | % Go/G1 (H460 cells [3]; H460, 33.3 nM): 7% | % S (H460 cells [3]; H460, 33.3 nM): 7% | GI50 (HT29): 1.9 nM | GI50 (MES-SA/DX5): 1.6 nM | GI50 (H460 cells [4]; [6]): 630 nM | GI50 (H460 cells [4]; [7]): 10 nM

COc1cc(C(=O)c2n[nH]c3c(C#CCOC(=O)OCc4ccc([N+](=O)[O-])o4)c(OC)ccc23)cc(OC)c1OC [Compound 57]
Metabolic stability (MLM, % remaining at 30 min) [1]: 21 ± 4% | GI50 (H460 cells [4]; [6]): 100 nM | GI50 (H460 cells [4]; [7]): 10 nM

COc1cc(C(=O)c2n[nH]c3c(C#CC(=O)O)c(OC)ccc23)cc(OC)c1OC [Compound 37]
GI50 (MES-SA): 3.2 nM | pIC50 (cancer cell): 7.30 to 9.00 | GI50 (HT29): 5 nM | GI50 (MES-SA/DX5): 3.5 nM | GI50 (H460 cells [4]; [6]): 501 nM | GI50 (H460 cells [4]; [7]): 3.2 nM

COc1cc(C(=O)c2n[nH]c3c(Br)c(OC)ccc23)cc(OC)c1OC [Compound 39]
GI50 (MES-SA): 2.5 nM | pIC50 (cancer cell): 7.30 to 9.00 | IC50 (tubulin): 7.9 µM | GI50 (T47D): 200 nM | % G2/M (H460 cells [3]; H460, 0.4 nM): 28% | % Go/G1 (H460 cells [3]; H460, 0.4 nM): 50% | % S (H460 cells [3]; H460, 0.4 nM): 15% | % G2/M (H460 cells [3]; H460, 1.2 nM): 31% | % Go/G1 (H460 cells [3]; H460, 1.2 nM): 47% | % S (H460 cells [3]; H460, 1.2 nM): 14% | % G2/M (H460 cells [3]; H460, 3.7 nM): 32% | % Go/G1 (H460 cells [3]; H460, 3.7 nM): 45% | % S (H460 cells [3]; H460, 3.7 nM): 12% | % G2/M (H460 cells [3]; H460, 11.1 nM): 29% | % Go/G1 (H460 cells [3]; H460, 11.1 nM): 47% | % S (H460 cells [3]; H460, 11.1 nM): 14% | % G2/M (H460 cells [3]; H460, 33.3 nM): 60% | % Go/G1 (H460 cells [3]; H460, 33.3 nM): 18% | % S (H460 cells [3]; H460, 33.3 nM): 13% | GI50 (HT29): 12.6 nM | GI50 (MES-SA/DX5): 10 nM | GI50 (H460 cells [4]; [7]): 15.8 nM

CC(=O)O[C@H]1C(=O)[C@@]2(C)[C@H]([C@H](OC(=O)c3ccccc3)[C@]3(O)C[C@H](OC(=O)[C@H](O)[C@@H](NC(=O)c4ccccc4)c4ccccc4)C(C)=C1C3(C)C)[C@]1(OC(C)=O)CO[C@@H]1C[C@@H]2O [taxol, paclitaxel, reference compound]
TIC, tumor volume (H460 xenograft; day 21, taxol alone 10 mg/kg daily, treatment began at 150 mm^3 tumor volume): 56%

COc1cc(C(=O)c2n[nH]c3c(/C=C/CO)c(OC)ccc23)cc(OC)c1OC [Compound 54]
GI50 (MES-SA): 3.2 nM | pIC50 (cancer cell): 7.30 to 9.00 | GI50 (T47D): 20 nM | GI50 (HT29): 5 nM | GI50 (MES-SA/DX5): 6.3 nM | GI50 (H460 cells [4]; [6]): 501 nM | GI50 (H460 cells [4]; [7]): 2 nM

COc1ccc(/C=C\c2cc(OC)c(OC)c(OC)c2)cc1OP(=O)(O)O [Combretastatin A-4 phosphate]
maximum tolerated daily dose [5]: 60-68 mg/m^2
